What is called GI50 is the concentration at which growth is held to half of that of the control. A word on the TGI: it is the concentration giving total growth inhibition.

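Five concentrations, 48 hours, 96-well plates. GI50: concentration for 50% inhibition of growth. TGI marks complete inhibition of growth.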

Test systems include M14 melanoma; TK-10 renal; SF-295 CNS; BT-549 breast; CAKI-1 renal; UACC-257 melanoma; DU-145 prostate; COLO 205 colon; KM12 colon; SNB-75 CNS.
What all share (test): DTP human tumour cell line panel, 48 h

For the compound `NCCCC[C@@H]1NC(=O)[C@H](CC(=O)O)NC(=O)CNC(=O)[C@H](CCCN=C(N)N)NC(=O)[C@@H](N)CSSC[C@@H](C(=O)O)NC(=O)[C@H](CC(=O)O)NC(=O)[C@@H]2CCCN2C(=O)CNC1=O`, the GI50 in the assay with M14 melanoma, with TK-10 renal, in the assay on SF-295 CNS, with BT-549 breast, in the assay with CAKI-1 renal and in the assay on UACC-257 melanoma was above 100 µM in each case. Moreover, the GI50 in the assay with DU-145 prostate, with COLO 205 colon and with KM12 colon was above 100 µM in each case. For the same compound, the total growth inhibition concentration (TGI) in the assay on M14 melanoma, with TK-10 renal, in the assay with SF-295 CNS, with BT-549 breast, in the assay with CAKI-1 renal and in the assay with UACC-257 melanoma was above 100 µM in each case. Besides, the TGI in the assay with DU-145 prostate, in the assay on COLO 205 colon and with KM12 colon was above 100 µM in each case.
In the case of `CCc1ccc(CCC(=O)Nc2ncc(Cc3ccc(Cl)cc3)s2)o1`, the GI50 in the assay on M14 melanoma was 0.271 µM; in the assay with SNB-75 CNS, 0.195 µM; in the assay with SF-295 CNS it was 0.374 µM; in the assay on BT-549 breast, 2.12 µM; in the assay on CAKI-1 renal it was 0.451 µM; in the assay with DU-145 prostate, 0.329 µM. Also, the GI50 with KM12 colon is 0.377 µM. Moreover, the TGI is 0.771 µM in the assay on SNB-75 CNS; above 100 µM with TK-10 renal; above 100 µM with SF-295 CNS; above 100 µM in the assay with BT-549 breast; above 100 µM in the assay on CAKI-1 renal; above 100 µM in the assay with UACC-257 melanoma. For the same compound, the TGI with DU-145 prostate and with KM12 colon was above 100 µM in each case.
For `O=C(Nc1ccccc1)Nc1ccc2cc3ccc(NC(=O)Nc4ccccc4)cc3nc2c1`, the GI50 in the assay on SNB-75 CNS was 1.97 µM; in the assay with TK-10 renal, 3.98 µM; in the assay with SF-295 CNS, 1.82 µM; in the assay on BT-549 breast, 1.88 µM; in the assay on CAKI-1 renal, 2.95 µM; with DU-145 prostate, 2.41 µM. Moreover, the GI50 in the assay with COLO 205 colon is 0.573 µM; in the assay with KM12 colon, 1.47 µM. In addition, the TGI was found to be 3.73 µM with SNB-75 CNS; 9.12 µM in the assay with TK-10 renal; 3.72 µM with SF-295 CNS; 3.69 µM with BT-549 breast; 12.3 µM in the assay with CAKI-1 renal; 7.49 µM in the assay on DU-145 prostate. The figures for the TGI with COLO 205 colon and in the assay on KM12 colon were 1.88 µM and 4.07 µM, respectively.
As for `NC(=O)c1cc([N+](=O)[O-])c(Cl)c([N+](=O)[O-])c1Cl`, the GI50 in the assay on SNB-75 CNS was 1.77 µM; in the assay on TK-10 renal, 1.61 µM; in the assay on SF-295 CNS, 3.29 µM; in the assay on BT-549 breast it was 3.41 µM; with CAKI-1 renal, 1.84 µM; with UACC-257 melanoma, 1.13 µM. Further, the GI50 in the assay on DU-145 prostate was 1.55 µM; with COLO 205 colon it was 0.369 µM; with KM12 colon, 1.61 µM. For the same compound, the concentration for total growth inhibition (TGI) with SNB-75 CNS was 3.69 µM; in the assay on TK-10 renal, 2.99 µM; with SF-295 CNS it was 12.1 µM; in the assay on BT-549 breast, 12.6 µM; in the assay with CAKI-1 renal, 3.72 µM; in the assay with UACC-257 melanoma it was 2.38 µM. Also, the TGI amounted to 2.88 µM in the assay on DU-145 prostate, 1.47 µM with COLO 205 colon and 3.02 µM in the assay with KM12 colon.
Consider `COc1ccc2c(c1)nc(C(=O)c1ccco1)c(C(F)(F)F)[n+]2[O-]`, for which the GI50 was above 100 µM in the assay on M14 melanoma; 51.4 µM with SNB-75 CNS; 86.8 µM with TK-10 renal; above 100 µM in the assay with SF-295 CNS; above 100 µM with BT-549 breast; above 100 µM in the assay with CAKI-1 renal. For the same compound, the GI50 with DU-145 prostate, in the assay on COLO 205 colon and in the assay with KM12 colon was above 100 µM in each case. The TGI in the assay on M14 melanoma, in the assay on SNB-75 CNS, in the assay on TK-10 renal, with SF-295 CNS, in the assay with BT-549 breast and in the assay on CAKI-1 renal was above 100 µM throughout. Also, the TGI with DU-145 prostate, in the assay on COLO 205 colon and in the assay on KM12 colon was above 100 µM each time.
`COc1ccc2c(c1)c(-c1nc(-c3c[nH]c4ccncc34)cs1)cn2C`: the GI50 with M14 melanoma is 1.78 µM; with SNB-75 CNS it was 1.52 µM; in the assay with TK-10 renal it was 1.88 µM; with SF-295 CNS it was 1.69 µM; in the assay on BT-549 breast it was 1.81 µM; with CAKI-1 renal it was 1.64 µM. Moreover, the GI50 with UACC-257 melanoma is 1.68 µM; in the assay with DU-145 prostate, 1.75 µM; in the assay on KM12 colon it was 1.73 µM. Besides, the TGI in the assay on M14 melanoma turned out to be 3.26 µM; in the assay on SNB-75 CNS, 2.91 µM; with TK-10 renal, 3.39 µM; in the assay with SF-295 CNS, 3.13 µM; in the assay with BT-549 breast, 3.45 µM; in the assay on CAKI-1 renal, 3.03 µM. Also, the TGI in the assay on UACC-257 melanoma stood at 3.09 µM; in the assay with DU-145 prostate it was 3.25 µM; in the assay on KM12 colon, 3.2 µM.
For `COC12C=C/C(=C(/C(=O)OCc3ccccn3)C(=O)CCCCCCCCC3(OC)C=C/C(=C(/C(=O)OCc4ccccn4)C(=O)CCCCCCCC1)O3)O2`, the GI50 is 0.252 µM in the assay with M14 melanoma; 0.827 µM in the assay with SNB-75 CNS; 1.69 µM with TK-10 renal; 0.397 µM in the assay with SF-295 CNS; 0.401 µM with BT-549 breast; 0.481 µM with CAKI-1 renal. For the same compound, the values for the GI50 with UACC-257 melanoma, with DU-145 prostate and in the assay on KM12 colon were 1.05 µM, 0.564 µM and 0.354 µM, respectively. For the same compound, the TGI in the assay on M14 melanoma was determined as 0.571 µM; in the assay on SNB-75 CNS, 2.37 µM; in the assay with TK-10 renal it was 4.19 µM; in the assay on SF-295 CNS it was 2.15 µM; in the assay with BT-549 breast, 2.07 µM; in the assay on CAKI-1 renal it was 3.4 µM. Besides, the concentration for total growth inhibition (TGI) is 4.27 µM in the assay on UACC-257 melanoma, 1.87 µM in the assay with DU-145 prostate and 1.39 µM in the assay with KM12 colon.
For `OC(COC(c1ccccc1)(c1ccccc1)c1ccccc1)C(O)CC1SCCS1` (centres undefined), the TGI in the assay on M14 melanoma was 84.3 µM; with TK-10 renal, 39.6 µM; in the assay on BT-549 breast, 44.1 µM; in the assay with CAKI-1 renal, 66.6 µM; in the assay with UACC-257 melanoma, 51.8 µM; in the assay with DU-145 prostate, 41.5 µM. The TGI with COLO 205 colon turned out to be 38.4 µM; in the assay with KM12 colon it was 29.8 µM.

Source of the values: PubChem BioAssay (NCI).
